Experimental data reported in patent US5891869A, “Basic oxazoline-amide derivatives of GE2270 and GE2270-like antibiotics” (Biosearch Italia, S.p.A., priority 1995, dated 1999).

What was measured:
Test in all cases: MIC by microbroth dilution
[1] = test system: Staphylococcus aureus L165; type: cell-based; details: 0,01% BSA, inoculum 10^4 CFU/ml, read after 18-24 h, Iso-Sensitest broth
Description: (§1) The minimal inhibitory concentration (MIC) has been determined by microbroth dilution methodology, in the presence of 0,01% (w/v) of bovine serum albumin (BSA). BSA is added to the diluent to avoid possible adherence of the compounds of the invention to the plastic surface of the microtiter wells, as disclosed also by B. Goldstein et al., Antimicrobial Agents and Chemotherapy, 37 (1993), 741-745.
(§2) Inocula were 10^4 CFU/ml, except for Propionibacterium acnes and Bacteroides fragilis (10^5 CFU/ml) MICs were read after 18-24 h, except for Haemophilus influenzae, P. acnes, B. fragilis (48 h).
(§3) All microorganisms were incubated at 37° C.; H. influenzae in a 5% CO2 atmosphere, anaerobes in a N2 --CO2 --H2 (80:10:10) mixture; other organisms in air.
(§4) The growth media are: Oxoid Iso-Sensitest broth for staphylococci and Enterococcus faecalis); Difco Todd Hewitt broth for streptococci; Difco brain heart infusion broth+1% Difco Supplement C. for H. influenzae; Difco Wilkins-Chalgren broth for anaerobes.

[2] = test system: Streptococcus pyogenes L49; type: cell-based; details: 0,01% BSA, 10^4 CFU/ml, 18-24 h, Todd Hewitt broth
Description: as §1, §2, §3, §4

[3] = test system: Strept. pneumoniae L44; type: cell-based, Streptococcus pneumoniae; details: 0,01% BSA, 10^4 CFU/ml, 18-24 h, Todd Hewitt broth
Description: as §1, §2, §3, §4

[4] = test system: Strept. sanguis L1721; type: cell-based, Streptococcus sanguis; details: 0,01% BSA, 10^4 CFU/ml, 18-24 h, Todd Hewitt broth
Description: as §1, §2, §3, §4

[5] = test system: Strept. agalactiae L310; type: cell-based, Streptococcus agalactiae; details: 0,01% BSA, 10^4 CFU/ml, 18-24 h, Todd Hewitt broth
Description: as §1, §2, §3, §4

[6] = test system: Bacteroides fragilis ATCC 25285 L1011; type: cell-based; details: 0,01% BSA, 10^5 CFU/ml, 48 h, anaerobic, Wilkins-Chalgren broth
Description: as §1, §2, §3, §4

[7] = test system: Haemoph. influenzae ATCC 19418 L970; type: cell-based, Haemophilus influenzae; details: 0,01% BSA, 10^4 CFU/ml, 48 h, 5% CO2, brain heart infusion broth+1% Supplement C
Description: as §1, §2, §3, §4

Structure (SMILES) | MIC of the compounds [1] [µg/mL] | MIC of the compounds [2] [µg/mL] | MIC of the compounds [3] [µg/mL] | MIC of the compounds [4] [µg/mL] | MIC of the compounds [5] [µg/mL] | MIC of the compounds [6] [µg/mL] | MIC of the compounds [7] [µg/mL]
CNC(=O)CC1NC(=O)c2csc(n2)-c2ccc(-c3nc(C4=NC(C(=O)NC(C)C(=O)N(C)CCN(C)C)CO4)cs3)nc2-c2csc(n2)-c2csc(n2)C(C(O)c2ccccc2)NC(=O)CNC(=O)c2nc(sc2COC)C(C(C)C)NC(=O)c2nc1sc2C (mixture of isomers) [Compound 15] | 0.06 | 4 | 0.25 | 0.5 | 4 |  | 
CCN(CCN(C)C)C(=O)C1COC(c2csc(-c3ccc4c(n3)-c3csc(n3)-c3csc(n3)C(C(O)c3ccccc3)NC(=O)CNC(=O)c3nc(sc3COC)C(C(C)C)NC(=O)c3nc(sc3C)C(CC(=O)NC)NC(=O)c3csc-4n3)n2)=N1 (mixture of isomers) [Compound 8] | 0.06 | 8 | 0.5 | 1 | 4 |  | 
CNC(=O)CC1NC(=O)c2csc(n2)-c2ccc(-c3nc(C4=NC(C(=O)N5CCN(CCCN(C)C)CC5)CO4)cs3)nc2-c2csc(n2)-c2csc(n2)C(C(O)c2ccccc2)NC(=O)CNC(=O)c2nc(sc2COC)C(C(C)C)NC(=O)c2nc1sc2C (mixture of isomers) [Compound 17] | 0.06 | 2 | 0.5 | 0.5 | 8 |  | 
CNC(=O)CC1NC(=O)c2csc(n2)-c2ccc(-c3nc(C4=NC(C(=O)NCCCN(C)C)CO4)cs3)nc2-c2csc(n2)-c2csc(n2)C(C(O)c2ccccc2)NC(=O)CNC(=O)c2nc(sc2COC)C(C(C)C)NC(=O)c2nc1sc2C (mixture of isomers) [Compound 5] | 0.06 | 1 | 0.25 | 0.25 | 2 | 32 | 
CNC(=O)CC1NC(=O)c2csc(n2)-c2ccc(-c3nc(C4=NC(C(=O)N5CC(C)NC(C)C5)CO4)cs3)nc2-c2csc(n2)-c2csc(n2)C(C(O)c2ccccc2)NC(=O)CNC(=O)c2nc(sc2COC)C(C(C)C)NC(=O)c2nc1sc2C (mixture of isomers) [Compound 12] | 0.06 | 2 | 0.5 | 0.5 | 4 |  | 
CCN(CC)CCN(CC)C(=O)C1COC(c2csc(-c3ccc4c(n3)-c3csc(n3)-c3csc(n3)C(C(O)c3ccccc3)NC(=O)CNC(=O)c3nc(sc3COC)C(C(C)C)NC(=O)c3nc(sc3C)C(CC(=O)NC)NC(=O)c3csc-4n3)n2)=N1 (mixture of isomers) [Compound 9] | 0.06 | 2 | 0.5 | 1 | 32 |  | 
CNC(=O)CC1NC(=O)c2csc(n2)-c2ccc(-c3nc(C4=NC(C(=O)NCCN(C(C)C)C(C)C)CO4)cs3)nc2-c2csc(n2)-c2csc(n2)C(C(O)c2ccccc2)NC(=O)CNC(=O)c2nc(sc2COC)C(C(C)C)NC(=O)c2nc1sc2C (mixture of isomers) [Compound 11] | 0.13 | 8 | 2 | 4 | > 128 |  | 
CNC(=O)CC1NC(=O)c2csc(n2)-c2ccc(-c3nc(C4=NC(C(=O)N(C)CC(=O)N(C)CCN(C)C)CO4)cs3)nc2-c2csc(n2)-c2csc(n2)C(C(O)c2ccccc2)NC(=O)CNC(=O)c2nc(sc2COC)C(C(C)C)NC(=O)c2nc1sc2C (mixture of isomers) [Compound 14] | 0.06 | 2 | 0.25 | 0.25 | 4 |  | 
CCN(CC)CCNC(=O)C1COC(c2csc(-c3ccc4c(n3)-c3csc(n3)-c3csc(n3)C(C(O)c3ccccc3)NC(=O)CNC(=O)c3nc(sc3COC)C(C(C)C)NC(=O)c3nc(sc3C)C(CC(=O)NC)NC(=O)c3csc-4n3)n2)=N1 (mixture of isomers) [Compound 3] | 0.06 | 2 | 0.5 | 0.5 | 4 |  | 128
CNC(=O)CC1NC(=O)c2csc(n2)-c2ccc(-c3nc(C4=NC(C(=O)NCCN5CCCC5)CO4)cs3)nc2-c2csc(n2)-c2csc(n2)C(C(O)c2ccccc2)NC(=O)CNC(=O)c2nc(sc2COC)C(C(C)C)NC(=O)c2nc1sc2C (mixture of isomers) [Compound 2] | 0.06 | 1 | 0.25 | 0.5 | 4 |  | 128
CNC(=O)CC1NC(=O)c2csc(n2)-c2ccc(-c3nc(C4=NC(C(=O)NCCN(C)C)CO4)cs3)nc2-c2csc(n2)-c2csc(n2)C(C(O)c2ccccc2)NC(=O)CNC(=O)c2nc(sc2COC)C(C(C)C)NC(=O)c2nc1sc2C (mixture of isomers) [Compound 7] | 0.13 | 4 | 1 | 1 | 8 |  | 
CNC(=O)CC1NC(=O)c2csc(n2)-c2ccc(-c3nc(C4=NC(C(=O)N5CCCC5CN(C)CCN(C)C)CO4)cs3)nc2-c2csc(n2)-c2csc(n2)C(C(O)c2ccccc2)NC(=O)CNC(=O)c2nc(sc2COC)C(C(C)C)NC(=O)c2nc1sc2C (mixture of isomers) [Compound 21] | 0.06 | 1 | 0.25 | 0.25 | 4 |  | 
CNC(=O)CC1NC(=O)c2csc(n2)-c2ccc(-c3nc(C4=NC(C(=O)N(C)CCN(C)CCN(C)C)CO4)cs3)nc2-c2csc(n2)-c2csc(n2)C(C(O)c2ccccc2)NC(=O)CNC(=O)c2nc(sc2COC)C(C(C)C)NC(=O)c2nc1sc2C (mixture of isomers) [Compound 16] | 0.06 | 2 | 0.25 | 0.25 | 8 |  | 
CNC(=O)CC1NC(=O)c2csc(n2)-c2ccc(-c3nc(C4=NC(C(=O)N5CCC(N(C)C)CC5)CO4)cs3)nc2-c2csc(n2)-c2csc(n2)C(C(O)c2ccccc2)NC(=O)CNC(=O)c2nc(sc2COC)C(C(C)C)NC(=O)c2nc1sc2C (mixture of isomers) [Compound 10] | 0.06 | 2 | 0.25 | 0.5 | 4 |  | 
CCN1CCCC1CNC(=O)C1COC(c2csc(-c3ccc4c(n3)-c3csc(n3)-c3csc(n3)C(C(O)c3ccccc3)NC(=O)CNC(=O)c3nc(sc3COC)C(C(C)C)NC(=O)c3nc(sc3C)C(CC(=O)NC)NC(=O)c3csc-4n3)n2)=N1 (mixture of isomers) [Compound 1] | 0.06 | 2 | 0.25 | 0.5 | 2 |  | 128
